EP1836906B1, “Healthy food product” (Unilever N.V., priority 2006, dated 2009)
Where two headings read alike, the source gives them in different places. Ends that are not written are not given here.

Experiments:
[1] = pH 6.5
Protocol: (§1) Peptides for use in food products according to the invention are water-insoluble in water at 20°C and a pH of 6.5. This can for example be evidenced by mixing 10 mg of the peptide into 10 ml of de-mineralised water at 20°C and pH 6.5, and stirring. A (measurable) turbid appearance of the solution after stirring is indicative of the fact that the peptide is water-insoluble.

[2] = Water solubility test (turbid appearance of 10 mg peptide in 10 ml de-mineralised water); settings: water at 20 C and pH 6.5
Protocol: as §1

Row | Compound | Peptide category (substantially water-insoluble or soluble) [1] | Peptide category (substantially water-insoluble or soluble) [2]
1 | NCC(=O)NCC(=O)NCC(=O)NCC(=O)NCC(=O)NCC(=O)O [GGGGGG] | Insoluble peptides | 
2 | DDDDDD [DDDDDD, reference compound] |  | Soluble peptides
3 | EAEWEY [EAEWEY, reference compound] |  | Soluble peptides
4 | GGGGGGGG [GGGGGGGG] |  | Insoluble peptides
5 | GSGGSG [GSGGSG] |  | Soluble peptides
6 | VEWEME [VEWEME, reference compound] |  | Soluble peptides
7 | YYYYYY [YYYYYY] |  | Insoluble peptides
